Values belong to the sequence of their own block, whether it stands above or below them.
Assays:
Test in all cases: pTyr-Var library bacterial peptide display kinase screen (enrichment scores)
c-Src kinase domain = c-Src kinase domain (Homo sapiens, UniProt P12931); assay type: biochemical; conditions: sheet "Src";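 also: log2 fold change in enrichment of variant over reference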
EPHB2 kinase domain = assay type: biochemical, human; conditions: sheet EPHB2
c-Abl kinase domain = biological target: T1, c-Abl kinase domain (Mus musculus, UniProt P00520); assay type: biochemical;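 also: log2 fold change in enrichment of variant over reference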
T1 sequence (P00520 242-493 limits assumed): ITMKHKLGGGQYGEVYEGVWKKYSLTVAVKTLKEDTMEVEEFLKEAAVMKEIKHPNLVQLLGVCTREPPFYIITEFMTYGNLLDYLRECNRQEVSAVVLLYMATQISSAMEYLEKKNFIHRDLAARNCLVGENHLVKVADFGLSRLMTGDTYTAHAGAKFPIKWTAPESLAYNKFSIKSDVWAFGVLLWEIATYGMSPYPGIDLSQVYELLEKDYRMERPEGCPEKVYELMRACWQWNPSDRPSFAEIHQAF

Fer kinase domain = assay type: biochemical, mouse; conditions: sheet "Fer"
EPHB1 kinase domain = assay type: biochemical, human; conditions: for Screen: sheet EPHB1, effect of the variant peptide relative to its reference peptide in the pTyr-Var library screen (enrichment scores)
[1] = variant peptide versus its reference peptide in the pTyr-Var library screen
[2] = effect of variant peptide relative to its reference peptide in the pTyr-Var library screen (enrichment scores)
[3] = fig5-data2, sheet "Abl", Screen for the variant/reference peptide pair, pTyr-Var library
[4] = sheet "Abl", effect of variant peptide relative to its reference peptide in pTyr-Var library screen (enrichment)
[5] = variant peptide relative to its reference peptide, pTyr-Var library screen enrichment
[6] = effect of the variant peptide relative to its reference peptide in the pTyr-Var library screen
[7] = value of the variant peptide against its reference peptide in the pTyr-Var library screen with Fer

Screen (c-Abl kinase domain; [4]): 1.206
Sequence: CDFKKYGKGLR [ZNF445_Y433_Y428C_YF]

Screen (c-Abl kinase domain; [3]): 1.479
Sequence: DCLASYLDKVR [KRT14_Y129_R125C]

Screen (c-Abl kinase domain; [3]): 0.6568
Sequence: DFTSRYLSASD [PKHD1_Y828_N830S]

Screen (c-Abl kinase domain; [3]): -1.246
Sequence: EDAHHYLCKEV [JAK2_Y382_A377E]

Screen (c-Abl kinase domain; [4]): 0.6447
Sequence: EEETDYTPVWC [UROD_Y30_G25E]

Screen (c-Abl kinase domain; [3]): -0.8606
Sequence: EPAVLYNLKER [MYH7_Y103_D107E]

Screen (c-Abl kinase domain; [3]): 0.1245
Sequence: ERIELYELDKK [PMM2_Y145_F144L]

Screen (c-Abl kinase domain; [4]): -1.647
Sequence: FSALDYKIFFF [WDPCP_Y210_L205F_YF]

Screen (variant relative to reference peptide, measured in the pTyr-Var library screen) (EPHB1 kinase domain; sheet "EPHB1", variant seq vs reference seq, bacterial peptide display enrichment): 3.912 | Screen (EPHB2 kinase domain; effect of the variant relative to its reference peptide in the pTyr-Var library screen): 3.039
Sequence: FSPCDYQPCLA [TNS1_Y798_Y796C_YF]

Screen (Fer kinase domain; [7]): 4.104
Sequence: GGMTEYELVVV [KRAS_Y4_K5E]

Screen (c-Abl kinase domain; [3]): 0.4221
Sequence: HHFAAYFQQGD [GPI_Y351_R347H]

Screen (c-Abl kinase domain; [3]): 0.0101
Sequence: IKKLIYVFLVI [JAGN1_Y42_H44Y_YF]

Screen (c-Abl kinase domain; [3]): 0.09357
Sequence: IVLRSYPASDH [NID2_Y449_G453D]

Screen (c-Abl kinase domain; [3]): 0.4141
Sequence: IWGKKYPTCNS [PTPRZ1_Y53_N48I]

Screen (c-Abl kinase domain; [3]): 1.628
Sequence: KICDWYQRQRP [KRT14_Y151_R148C]

Screen (EPHB1 kinase domain): 1.06 | Screen (EPHB2 kinase domain; [2]): 0.6623
Sequence: LAIELYVVVCK [RHO_Y136_R135L]

Further lines, the sequence ahead of its results:

Sequence: AEARMYGVLPW [PLP1_Y207_D203E]
Screen (c-Src kinase domain; [1]): -0.462 | Screen (EPHB2 kinase domain; [2]): -1.308

Sequence: AFQGKYTPSGQ [ALDOA_Y343_C339Y_YF]
Screen (c-Abl kinase domain; [3]): -0.08587

Sequence: CSEEMYCLMLQ [RET_Y981_R982C]
Screen (c-Src kinase domain; [1]): 1.894 | Screen (Fer kinase domain; [5]): 3.517

Sequence: DGQVNYEELVQ [CALM1_Y139_F142L]
Screen (EPHB1 kinase domain): -0.5322

Sequence: DGQVNYEGFVQ [CALM1_Y139_E141G]
Screen (EPHB1 kinase domain): -0.1972

Sequence: DLEKTYNTFRS [B4GALNT2_Y538_A533D_YF]
Screen (c-Src kinase domain; [6]): -0.01989

Sequence: DPHECYAKVFN [ALB_Y394_D399N]
Screen (c-Abl kinase domain; [3]): -0.4574

Sequence: EPFEVYRIVPE [IRF8_Y110_K108E_YF]
Screen (c-Src kinase domain; [6]): 2.655

Sequence: ERDTVYSSSGV [NELL2_Y350_N347D]
Screen (c-Src kinase domain; [1]): 1.43

Sequence: FDGGCYEQLFV [MC4R_Y41_S36Y_YF]
Screen (c-Src kinase domain; [6]): 0.4972 | Screen (Fer kinase domain; [7]): 0.1035

Sequence: FFFDLYGGEKF [PTPN11_Y66_D61Y_YF]
Screen (c-Src kinase domain; [1]): -1.282

Sequence: FQKNSYSEELR [LMNA_Y211_I210S]
Screen (c-Src kinase domain; [6]): -2.048

Sequence: FTNELYMMMRD [FGFR1_Y730_C725Y_YF]
Screen (EPHB1 kinase domain): 0.7713 | Screen (EPHB2 kinase domain; [2]): 0.5582

Sequence: GHLFAYDWIRI [BEST1_Y227_S231R_YF]
Screen (Fer kinase domain; [7]): -0.2857

Sequence: GITTGYLVLKE [DNMT3B_Y588_A585T]
Screen (c-Abl kinase domain; [3]): 1.643

Sequence: GKVADYIPQLP [GLS_Y249_A254P]
Screen (c-Abl kinase domain; [3]): 0.08452

Sequence: GRDVIYKGFED [NFU1_Y194_G190R]
Screen (c-Src kinase domain; [1]): -0.4839

Sequence: GVSFIYTIDGS [DCX_Y105_R102S_YF]
Screen (c-Src kinase domain; [6]): 0.9806 | Screen (c-Abl kinase domain; [3]): -0.05601

Sequence: HESEIYGKVCF [CSRP3_Y57_C58G_YF]
Screen (c-Src kinase domain; [6]): -0.5157 | Screen (Fer kinase domain; [7]): 1.394

Sequence: HFVFFYSFLLK [PTEN_Y178_R173H_YF]
Screen (c-Src kinase domain; [1]): 0.679

Sequence: HGQVNYEEFVQ [CALM2_Y139_D134H]
Screen (EPHB1 kinase domain): 1.863

Sequence: HSKGIYFVQLE [MGAT4B_Y262_Q257H_YF]
Screen (c-Src kinase domain; [6]): 0.1036 | Screen (c-Abl kinase domain; [3]): -0.4742 | Screen (EPHB2 kinase domain; [2]): -0.5096

Sequence: IFSGIYFKPES [L2HGDH_Y102_H98Y_YF]
Screen (c-Src kinase domain; [6]): 0.7627 | Screen (EPHB1 kinase domain): 0.7253

Sequence: IGEVVYQWAVM [GRIN2A_Y502_R504W]
Screen (c-Src kinase domain; [6]): -0.09777 | Screen (Fer kinase domain; [7]): 2.434

Sequence: IIEDPYFGNDF [ACP1_Y132_S137F_YF]
Screen (c-Src kinase domain; [6]): 0.7844

Sequence: INQGPYENHSV [ATP6V1B1_Y462_R465H]
Screen (Fer kinase domain; [7]): 4.636

Sequence: KAIMTYVFSFF [ACTN4_Y260_S262F_YF]
Screen (c-Abl kinase domain; [3]): -1.213

Sequence: KCLAVYQAGAR [APOE_Y180_R176C]
Screen (c-Src kinase domain; [6]): 2.645

Sequence: KEAQVYQAFRL [SUCLG2_Y343_K347R]
Screen (c-Src kinase domain; [1]): 0.6304 | Screen (Fer kinase domain; [5]): 0.58

Sequence: KFDLMYAKLAF [TUBA1A_Y399_R402L]
Screen (c-Src kinase domain; [1]): 2.907

Sequence: KFDLMYAKRAF [TUBA3E_Y399_W402R]
Screen (c-Src kinase domain; [1]): -2.285 | Screen (Fer kinase domain; [5]): -3.735

Sequence: KNEVLYDEENH [ARFGEF1_Y314_G316E]
Screen (c-Abl kinase domain; [3]): -0.7157

Sequence: KRNSLYSFSDH [CCDC82_Y331_Q327R]
Screen (c-Src kinase domain; [6]): -1.645 | Screen (Fer kinase domain; [7]): -2.294

Sequence: KSDVMYTDWKK [ORM1_Y175_V174M]
Screen (c-Src kinase domain; [1]): -1.392

Sequence: KVALLYKPFFF [POLE_Y100_P99L_YF]
Screen (c-Src kinase domain; [1]): 1.635

Sequence: LCHELYNTIRD [PBRM1_Y54_V49L]
Screen (c-Src kinase domain; [1]): 1.3
